Laboratory results as given in patent US8536187B2 (Gilead Sciences, Inc., priority 2008, dated 2013).

Columns and labels:
[1] = system: HCV replicon in human hepatoma Huh-7 cell line; assay: Anti-HCV replicon assay, EC50 (luciferase luminescence); format: cell-based; settings: Hepatitis C virus, Huh-7, 72 h
How it was run: (§1)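 Cytotoxicity (CC50) read by CellTiter-Glo luminescence after 10 min, and antiviral EC50 by luciferase signal after 30 min lysis with substrate, both at room temperature. Preceding step: 3-day exposure of 6000 Huh-7 HCV replicon cells per well to compound dilution series at 37° C, 5% CO2, in 0.5% DMSO.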

[2] = CC50 assay (CellTiter-Glo) in Huh-7 HCV replicon cells; format: cell-based; settings: human
How it was run: as §1

Cc1ccc(-c2ccc3nc(NCc4cccc(S(C)(=O)=O)c4)nc(NCC(F)(F)F)c3n2)cc1S(C)(=O)=O [Example 173, N^2-(3-(methylsulfonyl)benzyl)-6-(4-methyl-3-(methylsulfonyl)phenyl)-N^4-(2,2,2-trifluoroethyl) pyrido[3,2-d]pyrimidine-2,4-diamine]
EC50 [1]: < 100 nM | CC50 at 3 days ([2]; Table 2, 3 days incubation): 1000 to 10000 nM

C#Cc1ccc2nc(N[C@H](C)c3ccc(S(N)(=O)=O)cc3)nc(NCC(F)(F)F)c2n1 [Example 284, (R)-4-(1-(6-ethynyl-4-(2,2,2-trifluoroethylamino)pyrido [3,2-d]pyrimidin-2-ylamino)ethyl)benzenesulfonamide]
EC50 [1]: < 100 nM | CC50 at 3 days ([2]; Table 2, 3 days incubation): > 10000 nM

N#Cc1cc(F)ccc1-c1ccc2nc(NCc3cccc(S(N)(=O)=O)c3)nc(NC3(C(F)(F)F)CC3)c2n1 [Example 98, 3-((6-(2-cyano-4-fluorophenyl)-4-(1-(trifluoromethyl)cyclopropyl-amino)pyrido[3,2-d]pyrimidin-2-ylamino)methyl)benzene-sulfonamide]
EC50 [1]: < 100 nM | CC50 at 3 days ([2]; Table 2, 3 days incubation): 1000 to 10000 nM

C#Cc1ccc2nc(NCc3ccc(S(N)(=O)=O)cc3)nc(N[C@@H](C)C(F)(F)F)c2n1 [Example 289, (S)-4-((6-ethynyl-4-(1,1,1-trifluoropropan-2-ylamino)pyrido[3,2-d]pyrimidin-2-ylamino)methyl)benzene-sulfonamide]
EC50 [1]: < 100 nM | CC50 at 3 days ([2]; Table 2, 3 days incubation): 1000 to 10000 nM

CC[C@@H](Nc1nc(NCC(F)(F)F)c2nc(-c3ccc(F)cc3)ccc2n1)c1ccccc1S(N)(=O)=O [Example 11, (R)-2-{1-[6-(4-Fluoro-phenyl)-4-(2,2,2-trifluoro-ethylamino)-pyrido[3,2-d]pyrimidin-2-ylamino]-propyl}-benzenesulfonamide]
EC50 [1]: 250 to 2000 nM | CC50 at 3 days ([2]; Table 1, 3 days incubation): > 25000 nM

C[C@H](Cn1cncn1)Nc1nc(NCC(F)(F)F)c2nc(-c3cccc(S(C)(=O)=O)c3)ccc2n1 [Example 168, N^2-((R)-1-(1H-1,2,4-triazol-1-yl)propan-2-yl)-6-(3-(methylsulfonyl)phenyl)-N^4-(2,2,2-trifluoroethyl)pyrido [3,2-d]pyrimidine-2,4-diamine]
EC50 [1]: 100 to 250 nM | CC50 at 3 days ([2]; Table 2, 3 days incubation): > 10000 nM

CCOc1ccc(-c2ccc3nc(N[C@H](C)c4ccc(S(N)(=O)=O)cc4)nc(NCC(F)(F)F)c3n2)cc1S(N)(=O)=O [Example 261, 4-((R)-1-(6-(4-ethoxy-3-(aminosulfonyl)phenyl)-4-(2,2,2-trifluoroethylamino)pyrido[3,2-d]pyrimidin-2-ylamino)ethyl)benzene-sulfonamide]
EC50 [1]: < 100 nM | CC50 at 3 days ([2]; Table 2, 3 days incubation): > 10000 nM

COc1ccc(CNc2nc(NCC(F)(F)F)c3nc(-c4ccc(F)cc4)ccc3n2)cc1S(N)(=O)=O [Example 6]
EC50 [1]: 100 to 250 nM | CC50 at 3 days ([2]; Table 1, 3 days incubation): > 25000 nM

Fc1ccc(-c2ccc3nc(NCc4cccc(-n5cncn5)c4)nc(NCC(F)(F)F)c3n2)cc1 [Example 1, 6-(4-Fluoro-phenyl)-N2-(3-[1,2,4]-triazol-1-yl-benzyl)-N4-(2,2,2-trifluoro-ethyl)-pyrido[3,2-d]pyrimidine-2,4-diamine]
EC50 [1]: 100 to 250 nM | CC50 at 3 days ([2]; Table 1, 3 days incubation): > 25000 nM

COc1ccc(-c2ccc3nc(NCc4ccc(S(N)(=O)=O)c(Cl)c4)nc(NCC(F)(F)F)c3n2)cc1S(C)(=O)=O [Example 147, 2-chloro-4-((6-(4-methoxy-3-(methylsulfonyl)phenyl)-4-(2,2,2-trifluoroethylamino)pyrido[3,2-d]pyrimidin-2-ylamino)methyl)benzene-sulfonamide]
EC50 [1]: < 100 nM | CC50 at 3 days ([2]; Table 2, 3 days incubation): > 10000 nM

CCOc1ccc(-c2ccc3nc(NCc4ccc(-n5ccnc5)cc4)nc(NCC(F)(F)F)c3n2)cc1S(N)(=O)=O [Example 262, 5-(2-(4-(1H-imidazol-1-yl)benzylamino)-4-(2,2,2-trifluoroethylamino)pyrido [3,2-d]pyrimidin-6-yl)-2-ethoxybenzenesulfonamide]
EC50 [1]: < 100 nM | CC50 at 3 days ([2]; Table 2, 3 days incubation): 1000 to 10000 nM

CS(=O)(=O)c1cccc(-c2ccc3nc(NCC(O)CO)nc(NCC(F)(F)F)c3n2)c1 (stereo not shown) [Example 158, 3-(6-(3-(methylsulfonyl)phenyl)-4-(2,2,2-trifluoroethylamino)pyrido[3,2-d]pyrimidin-2-ylamino)propane-1,2-diol]
EC50 [1]: 250 to 2000 nM | CC50 at 3 days ([2]; Table 2, 3 days incubation): > 10000 nM

C[C@@H](Nc1nc(NCC(F)(F)F)c2nc(C#Cc3cncs3)ccc2n1)c1ccc(S(N)(=O)=O)cc1 [Example 297, (R)-4-(1-(6-(2-(thiazol-5-yl)ethynyl)-4-(2,2,2-trifluoro-ethylamino)pyrido[3,2-d]pyrimidin-2-ylamino)ethyl) benzenesulfonamide]
EC50 [1]: 250 to 2000 nM | CC50 at 3 days ([2]; Table 2, 3 days incubation): > 10000 nM

CS(=O)(=O)c1cccc(-c2ccc3nc(NCc4cccc(S(N)(=O)=O)c4)nc(NCC(F)(F)F)c3n2)c1 [Example 14, 3-{[6-(3-Methanesulfonyl-phenyl)-4-(2,2,2-trifluoro-ethylamino)-pyrido[3,2-d]pyrimidin-2-ylamino]-methyl}-benzenesulfonamide]
EC50 [1]: < 100 nM | CC50 at 3 days ([2]; Table 1, 3 days incubation): 10000 to 25000 nM

NS(=O)(=O)c1cc(Cl)cc(CNc2nc(NCC(F)(F)F)c3nc(C#CC4CC4)ccc3n2)c1 [Example 280, 3-chloro-5-((6-(2-cyclopropyl-ethynyl)-4-(2,2,2-trifluoro-ethylamino)pyrido[3,2-d]pyrimidin-2-ylamino)methyl) benzenesulfonamide]
EC50 [1]: < 100 nM | CC50 at 3 days ([2]; Table 2, 3 days incubation): > 10000 nM

CS(=O)(=O)c1cc(-c2ccc3nc(NCc4cccnc4)nc(NCC(F)(F)F)c3n2)ccc1OC(F)F [Example 178, 6-(4-(difluoromethoxy)-3-(methylsulfonyl)phenyl)-N^2-(pyridin-3-ylmethyl)-N^4-(2,2,2-trifluoroethyl)pyrido [3,2-d]pyrimidine-2,4-diamine]
EC50 [1]: < 100 nM | CC50 at 3 days ([2]; Table 2, 3 days incubation): 1000 to 10000 nM

NS(=O)(=O)c1ccc(CNc2nc(NC3(C(F)(F)F)CC3)c3nc(-c4cccc(C(F)(F)F)c4)ccc3n2)cc1 [Example 80, 4-((4-(1-(trifluoromethyl)cyclopropylamino)-6-(3-(trifluoromethyl)phenyl)pyrido [3,2-d]pyrimidin-2-ylamino)methyl)benzenesulfonamide]
EC50 [1]: 250 to 2000 nM | CC50 at 3 days ([2]; Table 2, 3 days incubation): 1000 to 10000 nM

NS(=O)(=O)c1ccc(CNc2nc(NC3(C(F)(F)F)CC3)c3nc(C#CC4CC4)ccc3n2)cc1 [Example 92, 4-((6-(2-cyclopropylethynyl)-4-(1-(trifluoromethyl)cyclopropyl-amino)pyrido[3,2-d]pyrimidin-2-ylamino)methyl)benzene-sulfonamide]
EC50 [1]: < 100 nM | CC50 at 3 days ([2]; Table 2, 3 days incubation): 1000 to 10000 nM

NC(=O)c1ccc(CNc2nc(NC3(C(N)=O)CC3)c3nc(-c4ccc(F)cc4)ccc3n2)cn1 [Example 133, 5-((4-(1-carbamoylcyclo-propylamino)-6-(4-fluorophenyl)pyrido[3,2-d]pyrimidin-2-ylamino)methyl)picolinamide]
EC50 [1]: 100 to 250 nM | CC50 at 3 days ([2]; Table 2, 3 days incubation): > 10000 nM

C=Cc1ccc2nc(NCc3cc(Cl)cc(S(N)(=O)=O)c3)nc(OC3(C)CC3)c2n1 [Example 303, 3-chloro-5-((4-(1-methylcyclo-propoxy)-6-vinylpyrido[3,2-d]pyrimidin-2-ylamino)methyl) benzenesulfonamide]
EC50 [1]: 100 to 250 nM | CC50 at 3 days ([2]; Table 2, 3 days incubation): > 10000 nM

C[C@@H](Nc1nc(OC2CC2)c2nc(-c3ccc(OC(F)F)c(S(C)(=O)=O)c3)ccc2n1)c1ccc(S(N)(=O)=O)cc1 [Example 185, 4-((R)-1-(4-cyclopropoxy-6-(4-(difluoromethoxy)-3-(methylsulfonyl)phenyl)pyrido [3,2-d]pyrimidin-2-ylamino)ethyl)benzenesulfonamide]
EC50 [1]: 100 to 250 nM | CC50 at 3 days ([2]; Table 2, 3 days incubation): > 10000 nM

COc1ccc(-c2ccc3nc(NCCS(N)(=O)=O)nc(NCC(F)(F)F)c3n2)cc1S(C)(=O)=O [Example 172, 2-(6-(4-methoxy-3-(methylsulfonyl)phenyl)-4-(2,2,2-trifluoroethylamino)pyrido[3,2-d]pyrimidin-2-ylamino)ethanesulfonamide]
EC50 [1]: 100 to 250 nM | CC50 at 3 days ([2]; Table 2, 3 days incubation): > 10000 nM

CCOc1nc(N[C@H](C)c2ccc(S(N)(=O)=O)cc2)nc2ccc(C#CC3CC3)nc12 [Example 316, (R)-4-(1-(6-(2-cyclopropyl-ethynyl)-4-ethoxypyrido [3,2-d]pyrimidin-2-ylamino)ethyl)benzenesulfonamide]
EC50 [1]: 100 to 250 nM | CC50 at 3 days ([2]; Table 2, 3 days incubation): > 10000 nM
